Data: patent US20070111265A1, “Ligands for mineralocorticoid receptor (MR) and methods for screening for or designing MR ligands” (Van Andel Research Institute, priority 2005, published 2007)
Where a chain is given by its changes, count along the chain named. Several values for one entry are separate records, joined by “and”; a condition that tells them apart may be missing. Equal values may be shown once. Read-outs that look alike come from different tables or passages of the source.

What was measured:
[1] = molecular target: T1, wild type MR (full-length) (Homo sapiens, UniProt P08235); experiment: MMTV luciferase reporter assay in Cos-7 cells; format: cell-based
T1 construct: receptor expression vector (pRS vector) encoding full-length GR and MR respectively (ATCC); host or cells: Cos-7
T1 sequence (P08235 1-984): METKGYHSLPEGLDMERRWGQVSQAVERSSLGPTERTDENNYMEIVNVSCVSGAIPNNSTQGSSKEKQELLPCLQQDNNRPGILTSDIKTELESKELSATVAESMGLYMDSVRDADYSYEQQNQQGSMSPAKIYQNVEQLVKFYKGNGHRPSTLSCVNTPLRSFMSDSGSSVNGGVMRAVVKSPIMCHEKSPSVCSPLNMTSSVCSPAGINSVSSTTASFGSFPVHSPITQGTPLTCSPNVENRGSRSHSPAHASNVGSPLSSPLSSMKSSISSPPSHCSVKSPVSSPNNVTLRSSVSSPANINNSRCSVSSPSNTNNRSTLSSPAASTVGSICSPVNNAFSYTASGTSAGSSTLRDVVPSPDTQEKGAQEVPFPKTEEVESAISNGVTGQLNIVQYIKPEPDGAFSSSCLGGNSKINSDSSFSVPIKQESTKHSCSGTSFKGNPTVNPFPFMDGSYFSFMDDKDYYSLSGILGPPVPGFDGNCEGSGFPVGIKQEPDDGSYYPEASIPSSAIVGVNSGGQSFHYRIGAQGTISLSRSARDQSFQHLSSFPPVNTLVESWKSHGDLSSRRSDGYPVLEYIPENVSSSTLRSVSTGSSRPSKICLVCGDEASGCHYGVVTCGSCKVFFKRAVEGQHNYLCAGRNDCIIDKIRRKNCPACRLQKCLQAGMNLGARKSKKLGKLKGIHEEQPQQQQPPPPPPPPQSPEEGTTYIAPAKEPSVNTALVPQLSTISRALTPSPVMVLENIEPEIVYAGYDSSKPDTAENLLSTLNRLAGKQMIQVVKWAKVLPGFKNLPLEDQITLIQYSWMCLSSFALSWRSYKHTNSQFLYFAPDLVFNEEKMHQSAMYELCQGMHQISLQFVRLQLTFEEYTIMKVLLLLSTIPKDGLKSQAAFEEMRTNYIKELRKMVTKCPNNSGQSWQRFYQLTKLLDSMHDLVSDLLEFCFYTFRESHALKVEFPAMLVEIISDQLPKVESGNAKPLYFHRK
Protocol: (§1) Cos-7 cells were maintained in DMEM containing 10% fetal bovine serum (FBS) and were transiently transfected using Lipofectamine 2000 (Invitrogen). […] Cells were transfected in Opti-MEM with 400 ng of MMTV-Luc reporter plasmid and 400 ng of receptor expression vector (pRS vector) encoding full-length GR and MR respectively (ATCC). […] Luciferase data were normalized to Renilla activity as an internal control.
(§2) To validate the role of the key MR pocket residues in hormone recognition, the inventors mutated S843 and L848 to the corresponding GR residues (S843P and L848Q) within the context of the full length wild type receptor. […] We also performed reverse mutations in the full length GR receptor (P637S and Q642L) and tested them in the same MMTV reporter.

MR L848Q = molecular target: T2, MR L848Q (Homo sapiens, UniProt P08235, L848Q); experiment: MMTV luciferase reporter assay in Cos-7 cells; format: cell-based
T2 construct: (S843P and L848Q) within the context of the full length wild type receptor; expressed in transfected cells; host or cells: Cos-7
T2 sequence (P08235 1-984 L848Q): T1 sequence (P08235 1-984) with L848Q
Protocol: as §1, §2

[2] = Cos-7, MMTV-Luc, read-out: EC50, activation of wild type MR
[3] = summary of FIG. 5 dose-response, read-out: affinity to MR (shown in FIG. 5)

Compound | EC50 [1, 2] | EC50 [1, 3] [nM] | activation of MR L848Q (MR L848Q; versus wild type MR) | potency of corticosterone relative to cortisol ([1]; wild type MR) | EC50 (MR L848Q; Cos-7, MMTV-Luc, read-out: EC50, activation of MR L848Q) [nM] | decrease of potency by L848Q mutation (MR L848Q; versus wild type MR)
C[C@]12CCC(=O)C=C1CC[C@@H]1[C@@H]2[C@@H](O)C[C@@]2(C)[C@H]1CC[C@]2(O)C(=O)CO [cortisol] | 0.6 nM | 0.1 to 1 | not affected | – | – | –
C[C@]12C[C@H](O)[C@H]3[C@@H](CCC4=CC(=O)CC[C@@]43C)[C@@H]1CC[C@@H]2C(=O)CO [corticosterone] | 0.08 nM and < 0.1 nM | 0.1 to 1 | – | roughly 10 fold | ~1 | at least 10 fold
